Test results reported in patent US20210289794A1, “COMPOSITIONS AND RELATED METHODS FOR AGRICULTURE” (Flagship Pioneering Innovations V, Inc., priority 2018, published 2021).
Peptide text beside a SMILES is read from it.

Test system: Candidatus Pantoea carbekii
Assay: Quantification of P. carbekii titers by RT-qPCR in H. halys nymphs hatched from treated eggs
Type: in vivo, Halyomorpha halys
Conditions: for levels of P. carbekii (symbiont levels per host; ratio of P. carbekii dnaK to H. halys 60s expression): Example 5: egg mass treatment, late 2nd instars, vs water control, FIG. 5; for levels of P. carbekii (ratio of P. carbekii dnaK to H. halys 60s expression): third instars collected, vs negative control
Method: Total RNA was extracted from nymphs using total RNA isolation and purification kits (both from Thermo Fisher Scientific), and the extracted RNA was eluted in 100 μL water. […] Each of the PCR mixtures was 10 μL in volume. RT-qPCR was performed using a PCR amplification ramp of 1.6° C./s and the following conditions: 1) 48° C. for 30 min; 2) 95° C. for 10 minutes; 3) 95° C. for 15 seconds; 4) 55° C. for 30 seconds; 5) repeat steps 3-4 40×, 6); 95° C. for 15 seconds; 7) 55° C. for 1 minute; 8) ramp change to 0.15° C./s; 9) 95° C. for 1 second. RT-qPCR data was analyzed using analytic software (Thermo Fisher Scientific).
Working concentrations of the PHA synthesis inhibitors (vanillin, levulinic acid, acrylic acid (AA), and 2-bromooctanoic acid (2BA)) were made up to 100 μg/ml in water. The solutions of PHA inhibitors were spiked with a non-ionic wetting solution to a final concentration of 0.025% to increase the wettability and spreading of the agents on the eggs. As a negative control, no agents were added to the 0.025% non-ionic wetting solution, and as a positive control, 100 μg/ml of the antibiotic rifamycin S was used. Egg masses on leaf disks were removed from the colony in a single day during peak egg production. Each egg mass was then placed in a container with a paper towel at the bottom, and a tube of water plugged with cotton was provided as a water source for the hatchlings. 100 μl of the agent was pipetted onto the eggs to wet them completely. This allowed the agent to interact directly with the bacteria before the bacteria was able to colonize the host. Once the 1st instar hatchlings molted to the 2nd instar stage, food was provided in the form of 500 mg diet pellets (see “Halyomorpha halys lab colony rearing and maintenance” above). Late 2nd instars were collected and frozen to extract DNA to assay for the symbiont levels, as described in Example 4. […]

[1] = 100 μg/ml in water with 0.025% non-ionic wetting solution, 100 μl
[2] = Example 6: egg mass treatment, 100 μg/ml in water with 0.025% Silwet L-77, 100 μl, FIG. 6

C=CC(=O)O [acrylic acid]
levels of P. carbekii (symbiont levels per host; ratio of P. carbekii dnaK to H. halys 60s expression) [1]: reduction in the symbiont levels per host

CC[C@H](C)[C@H](N)C1=N[C@H](C(=O)N[C@@H](CC(C)C)C(=O)N[C@H](CCC(=O)O)C(=O)N[C@H](C(=O)N[C@H]2CCCCNC(=O)[C@H](CC(N)=O)NC(=O)[C@@H](CC(=O)O)NC(=O)[C@H](Cc3cnc[nH]3)NC(=O)[C@@H](Cc3ccccc3)NC(=O)[C@H]([C@@H](C)CC)NC(=O)[C@@H](CCCN)NC2=O)[C@@H](C)CC)CS1 [bacitracin] (HELM PEPTIDE1{[CC[C@H](C)[C@H](N)C1=N[C@H](C(=O)[*:2])CS1].L.[dE].I.K.[NCCC[C@@H](N[*:1])C(=O)[*:2]].I.[dF].H.[dD].N}$PEPTIDE1,PEPTIDE1,5:R3-11:R2$$$V2.0)
levels of P. carbekii (ratio of P. carbekii dnaK to H. halys 60s expression) [2]: significantly lower

COc1cc(C=O)ccc1O [vanillin]
levels of P. carbekii (symbiont levels per host; ratio of P. carbekii dnaK to H. halys 60s expression) [1]: reduction in the symbiont levels per host

CC(=O)CCC(=O)O [levulinic acid]
levels of P. carbekii (symbiont levels per host; ratio of P. carbekii dnaK to H. halys 60s expression) [1]: reduction in the symbiont levels per host

CCCCCCC(Br)C(=O)O (centres unmarked) [2-bromooctanoic acid]
levels of P. carbekii (symbiont levels per host; ratio of P. carbekii dnaK to H. halys 60s expression) [1]: reduction in the symbiont levels per host

CO[C@H]1/C=C/O[C@@]2(C)Oc3c(C)c(O)c4c(c3C2=O)C(=O)C=C(NC(=O)/C(C)=C\C=C\[C@H](C)[C@H](O)[C@@H](C)[C@@H](O)[C@@H](C)[C@H](OC(C)=O)[C@@H]1C)C4=O [Rifamycin S]
levels of P. carbekii (symbiont levels per host; ratio of P. carbekii dnaK to H. halys 60s expression) [1]: significantly lower | levels of P. carbekii (ratio of P. carbekii dnaK to H. halys 60s expression) [2]: significantly lower | levels of P. carbekii (ratio of P. carbekii dnaK to H. halys 60s expression) (Example 7: egg mass treatment, 100 μg/ml in water with 0.025% non-ionic wetting solution, 100 μl, FIG. 7): significantly lower
